Laboratory results: US11634396B2 (priority 2021, dated 2023)

target: human mOR (Homo sapiens (Human), UniProt P35372); experiment: cell-based; details: not given
Procedure: CHO Tag-lite human mOR stable cell line from Cisbio (NCBI accession number: NM_000914.3, Bedford, Mass.) were seeded and grown to approximately 80% confluence in Ham F-12 with 10% FBS, 50 U/ml penicillin, 50 μg/ml streptomycin, 2 mM Hepes, and 1 mg/ml geneticin (Invitrogen, Carlsbad, Calif.). Cells were then harvested using accutase (Corning. Coming, N.Y.), centrifuged at 1300 RPM for 5 min, and plated at 5000 cells per 5 μL per well in a 5× dilution of stimulation buffer consisting of the HTRF cAMP Gi kit, water and IBMX at 0.5 mM (Cisbio, Bedford, Mass.) in white HTRF low volume 384 well plates (Cisbio, Bedford, Mass.). Plates were then incubated at 37° C. in 5% CO2 for 10 minutes. For the agonist assay, forskolin was added to a final concentration of 4 μM. […] Test compounds were dissolved in DMSO and water, and then serially diluted to working concentrations such that the concentration of DMSO was less than 0.1%. Diluted test compounds were added at 2.5 μL per well, and plates were incubated at 37° C., and 5% CO2 for 15 minutes, and then at room temperature for 15 minutes. Next 5 μl/well of cAMP Eu-cryptate and 5 μl/well of anti-cAMP-d2 (both diluted 1:20 in lysis buffer) were added, and plates were incubated at room temperature for 1 hour. Following incubation, plates were read in a Synergy Neo2 multi-mode reader (Biotek, Winooski, Vt.). […] For the agonist assay, data was normalized using the maximal DAMGO response. Measurements were performed in triplicate and the dose response was fit using nonlinear regression.

human mOR, sequence (P35372 whole entry): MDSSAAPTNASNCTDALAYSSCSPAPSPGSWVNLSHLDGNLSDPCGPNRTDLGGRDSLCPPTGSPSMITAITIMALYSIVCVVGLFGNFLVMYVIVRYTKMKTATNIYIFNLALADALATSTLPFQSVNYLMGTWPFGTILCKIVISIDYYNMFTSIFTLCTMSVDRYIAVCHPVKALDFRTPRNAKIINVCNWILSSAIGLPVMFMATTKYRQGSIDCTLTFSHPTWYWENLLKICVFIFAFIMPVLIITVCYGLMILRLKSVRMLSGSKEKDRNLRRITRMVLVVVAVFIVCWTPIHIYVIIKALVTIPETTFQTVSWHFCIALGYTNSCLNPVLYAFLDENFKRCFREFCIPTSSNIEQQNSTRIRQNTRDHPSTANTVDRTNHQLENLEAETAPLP

SMILES | IC50 [nM]
CNC(=O)c1ccc(C[C@@H](CNC(=O)CC(c2cccnc2)C2(C(F)(F)F)CC2)N(C)C)c(Cl)c1F (stereo in doubt) [Compound 109, 3-chloro-4-((S)-2-(dimethylamino)-3-((S)-3-(pyridin-3-yl)-3-(1-(trifluoromethyl)cyclopropyl)propanamido)propyl)-2-fluoro-N-methylbenzamide] | < 300
CNC(=O)c1ccc(C[C@@H](CNC(=O)CC(c2cccnc2)C2(C(F)(F)F)CC2)N(C)C)c(C)c1F (stereo in doubt) [Compound 124, 4-((S)-2-(dimethylamino)-3-((S)-3-(pyridin-3-yl)-3-(1-(trifluoromethyl)cyclopropyl)propanamido)propyl)-2-fluoro-N,3-dimethylbenzamide] | > 3000
CNC(=O)c1ccc(C[C@@H](CNC(=O)CC(c2ccncc2)C2(C(F)(F)F)CC2)N(C)C)c(C)c1 (stereo in doubt) [Compound 130, 4-((S)-2-(dimethylamino)-3-((S)-3-(pyridin-4-yl)-3-(1-(trifluoromethyl)cyclopropyl)propanamido)propyl)-N,3-dimethylbenzamide] | < 300
Cc1ncc([C@@H](CC(=O)NC[C@H](Cc2ccc(C(N)=O)c(F)c2F)N(C)C)C2(C(F)(F)F)CC2)s1 [Compound 1, 4-((S)-2-(dimethylamino)-3-((S)-3-(2-methylthiazol-5-yl)-3-(1-(trifluoromethyl)cyclopropyl)propanamido)propyl)-2,3-difluorobenzamide] | < 300
Cc1ncc([C@@H](CC(=O)NC[C@H](Cc2ccc(C(N)=O)c(F)c2F)N(C)C)C2(C(F)(F)F)CC2)cn1 [Compound 3, 4-((S)-2-(dimethylamino)-3-((R)-3-(2-methylpyrimidin-5-yl)-3-(1-(trifluoromethyl)cyclopropyl)propanamido)propyl)-2,3-difluorobenzamide] | < 300
Cc1ccc([C@@H](CC(=O)NC[C@H](Cc2ccc(C(N)=O)c(F)c2F)N(C)C)C2(C(F)(F)F)CC2)cn1 [Compound 4, 4-((S)-2-(dimethylamino)-3-((R)-3-(6-methylpyridin-3-yl)-3-(1-(trifluoromethyl)cyclopropyl)propanamido)propyl)-2,3-difluorobenzamide] | < 300
CN(C)[C@H](CNC(=O)C[C@@H](c1ncc(Cl)cn1)C1(C(F)(F)F)CC1)Cc1cc(F)c(C(N)=O)cc1F [Compound 5, 4-[(2S)-3-[(3R)-3-(5-chloropyrimidin-2-yl)-3-[1-(trifluoromethyl)cyclopropyl]propanamido]-2-(dimethylamino)propyl]-2,5-difluorobenzamide] | 300 to 3000
Cc1ncc([C@@H](CC(=O)NC[C@H](Cc2ccc(C(N)=O)c(F)c2Cl)N(C)C)C2(C(F)(F)F)CC2)s1 [Compound 16, 3-chloro-4-[(2S)-2-(dimethylamino)-3-[(3S)-3-(2-methyl-1,3-thiazol-5-yl)-3-[1-(trifluoromethyl)cyclopropyl]propanamido]propyl]-2-fluorobenzamide] | < 300
CN(C)[C@H](CNC(=O)CC(c1ccncc1)C1(C(F)(F)F)CC1)Cc1ccc(C(N)=O)c(F)c1Cl (stereo partly drawn) [Compound 19, 3-chloro-4-[(2S)-2-(dimethylamino)-3-[3-(pyridin-4-yl)-3-[1-(trifluoromethyl)cyclopropyl]propanamido]propyl]-2-fluorobenzamide] | < 300
CN(C)[C@H](CNC(=O)CC(c1ccncc1)C1(C(F)(F)F)CC1)Cc1ccc(C(N)=O)cc1Cl (stereo partly drawn) [Compound 26, 3-chloro-4-[(2S)-2-(dimethylamino)-3-[3-(pyridin-4-yl)-3-[1-(trifluoromethyl)cyclopropyl]propanamido]propyl]benzamide] | < 300
CN(C)[C@H](CNC(=O)CC(c1ncccn1)C1(C(F)(F)F)CC1)Cc1ccc(C(N)=O)cc1Cl (stereo partly drawn) [Compound 27, 3-chloro-4-((2S)-2-(dimethylamino)-3-(3-(pyrimidin-2-yl)-3-(1-(trifluoromethyl)cyclopropyl)propanamido)propyl)benzamide] | < 300
CN(C)c1ncc(C(CC(=O)NC[C@H](Cc2ccc(C(N)=O)cc2Cl)N(C)C)C2(C(F)(F)F)CC2)cn1 (stereo partly drawn) [Compound 29, 3-chloro-4-[(2S)-2-(dimethylamino)-3-{3-[2-(dimethylamino)pyrimidin-5-yl]-3-[1-(trifluoromethyl)cyclopropyl]propanamido}propyl]benzamide] | < 300
CN(C)[C@H](CNC(=O)CC(c1cncnc1)C1(C(F)(F)F)CC1)Cc1ccc(C(N)=O)cc1Cl (stereo partly drawn) [Compound 30, 3-chloro-4-[(2S)-2-(dimethylamino)-3-[3-(pyrimidin-5-yl)-3-[1-(trifluoromethyl)cyclopropyl]propanamido]propyl]benzamide] | < 300
CN(C)[C@H](CNC(=O)CC(c1ncc(Cl)cn1)C1(C(F)(F)F)CC1)Cc1ccc(C(N)=O)cc1Cl (stereo partly drawn) [Compound 31, 3-chloro-4-[(2S)-3-[3-(5-chloropyrimidin-2-yl)-3-[1-(trifluoromethyl)cyclopropyl]propanamido]-2-(dimethylamino)propyl]benzamide] | < 300
Cc1ncc([C@@H](CC(=O)NC[C@H](Cc2ccc(C(N)=O)c(F)c2C)N(C)C)C2CC2)cn1 [Compound 42, 4-((S)-3-((S)-3-cyclopropyl-3-(2-methylpyrimidin-S-yl)propanamido)-2-(dimethylamino)propyl)-2-fluoro-3-methylbenzamide] | > 3000
Cc1ncc([C@@H](CC(=O)NC[C@H](Cc2ccc(C(N)=O)c(F)c2C)N(C)C)C2(C(F)(F)F)CC2)s1 [Compound 43, 4-((S)-2-(dimethylamino)-3-((S)-3-(2-methylthiazol-5-yl)-3-(1-(trifluoromethyl)cyclopropyl)propanamido)propyl)-2-fluoro-3-methylbenzamide] | < 300
Cc1ncc([C@@H](CC(=O)NC[C@H](Cc2ccc(C(N)=O)c(F)c2C)N(C)C)C2(C(F)(F)F)CC2)cn1 [Compound 44, 4-((S)-2-(dimethylamino)-3-((R)-3-(2-methylpyrimidin-5-yl)-3-(1-(trifluoromethyl)cyclopropyl)propanamido)propyl)-2-fluoro-3-methylbenzamide] | < 300
Cc1c(C[C@@H](CNC(=O)C[C@@H](c2cncc(F)c2)C(C)(C)C)N(C)C)ccc(C(N)=O)c1F [Compound 45, 4-((S)-2-(dimethylamino)-3-((R)-3-(5-fluoropyridin-3-yl)-4,4-dimethylpentanamido)propyl)-2-fluoro-3-methylbenzamide] | < 300
Cc1ccc([C@@H](CC(=O)NC[C@H](Cc2ccc(C(N)=O)c(F)c2C)N(C)C)C2(C(F)(F)F)CC2)cn1 [Compound 46, 4-((S)-2-(dimethylamino)-3-((R)-3-(6-methylpyridin-3-yl)-3-(1-(trifluoromethyl)cyclopropyl)propanamido)propyl)-2-fluoro-3-methylbenzamide] | < 300
Cc1ccc([C@@H](CC(=O)NC[C@H](Cc2cc(F)c(C(N)=O)c(F)c2)N(C)C)C2(C(F)(F)F)CC2)cn1 [Compound 47, 4-((S)-2-(dimethylamino)-3-((R)-3-(6-methylpyridin-3-yl)-3-(1-(trifluoromethyl)cyclopropyl)propanamido)propyl)-26-difluorobenzamide] | < 300
Cc1ncc([C@@H](CC(=O)NC[C@H](Cc2cc(F)c(C(N)=O)c(F)c2)N(C)C)C2(C(F)(F)F)CC2)cn1 [Compound 48, 4-((S)-2-(dimethylamino)-3-((R)-3-(2-methylpyrimidin-5-yl)-3-(1-(trifluoromethyl)cyclopropyl)propanamido)propyl)-2,6-difluorobenzamide] | > 3000
CN(C)[C@H](CNC(=O)CC(c1cccnc1)C1(C(F)(F)F)CC1)Cc1cc(F)c(C(N)=O)c(F)c1 (stereo partly drawn) [Compound 50, 4-[(2S)-2-(dimethylamino)-3-[3-(pyridin-3-yl)-3-[1-(trifluoromethyl)cyclopropyl]propanamido]propyl]-2,6-difluorobenzamide] | > 3000
CN(C)[C@H](CNC(=O)C[C@H](c1ccoc1)C1(C(F)(F)F)CC1)Cc1ccc(C(N)=O)c(F)c1 [Compound 51, 4-((S)-2-(dimethylamino)-3-((R)-3-(furan-3-yl)-3-(1-(trifluoromethyl)cyclopropyl)propanamido)propyl)-2-fluorobenzamide] | < 300
Cc1cc([C@@H](CC(=O)NC[C@H](Cc2ccc(C(N)=O)c(F)c2)N(C)C)C2(C(F)(F)F)CC2)cs1 [Compound 52, 4-((S)-2-(dimethylamino)-3-((S)-3-(5-methylthiophen-3-yl)-3-(1-(trifluoromethyl)cyclopropyl)propanamido)propyl)-2-fluorobenzamide] | < 300

same assay, conditions: CHO Tag-lite human mOR stable cell line; forskolin 4 μM and DAMGO at EC90; read-out: mOR cAMP Antagonist Assay IC50

SMILES | IC50 [nM]
CNC(=O)c1ccc(C[C@@H](CNC(=O)C[C@@H](c2ccncc2)C2(C(F)(F)F)CC2)N(C)C)c(Cl)c1F (single isomer, unassigned) [Compound 111] | < 300
CN(C)[C@H](CNC(=O)C[C@H](c1cncs1)C1(C(F)(F)F)CC1)Cc1ccc(C(N)=O)c(F)c1F [Compound 2, 4-((S)-2-(dimethylamino)-3-((S)-3-(thiazol-5-yl)-3-(1-(trifluoromethyl)cyclopropyl)propanamido)propyl)-2,3-difluorobenzamide] | < 300
